# Measured values published in US4694069A, “Kibdelosporangium aridum SK&F-AAD-609” (SmithKline Beckman Corporation, priority 1985, dated 1987).
# Where two headings read alike, the source gives them in different places.
# Tests used:
# [1] = system: S. aureus 2620 (methicillin resistant strain); assay: MIC; format: cell-based; conditions: Table B, methicillin resistant strain
# Description: (§1) In vitro minimum inhibitory concentrations (MIC) of the AAD-609 complex and of Factors A, B, CC2 and D, using standard microtiter assay procedures, against a number of microorganisms are reported in Table A, which follows.
# Pharmacokinetics in mice = conditions: mice
# [2] = pKa by potentiometric titration; conditions: 30:70 acetonitrile:water, apparent values
# [3] = system: mixed intestinal microflora (cecum fluid); assay: Swine in vitro model; conditions: one level, up to 166.67 ppm; 4-5 h
# Protocol: A swine in vitro model was used to characterize AAD-609 antibiotics as potential feed additives in swine and poultry. Mixed intestinal microflora were obtained from ileally-cannulated pigs. Virginiamycin, carbadox, AAD-216 and its components, and AAD-609 Complex (containing less than 5% AAD-216 antibiotics) were tested at one level. […] Glucose (GLU) was spared from microbial degradation. Volatile fatty acids (TOTAL) were the major end-product of microbial metabolism while lactic acid production were reduced. […] Since AAD-609 and AAD-216 give similar in vitro results, it is expected that AAD-609 has similar growth-promoting activity in monogastric animals. Also, the in vitro activity of AAD-609 is similar to the activity previously observed with bacitracin in this model.
# The swine in vitro model was carried out by incubating 1.5 ml of cecum fluid, from a swine fed normal rations, mixed with 1.5 ml of a nutrient broth (3 mg casein hydrolysate, 30 mg maltose, 1.25 mg urea, 0.5 mg lysine, and 30 mg cellobiose) and with up to 166.67 parts per million of a selected growth promotant at 39° C., with oscillation, for about 4-5 hours. Results, percentage of control, are reported in the following table in which all abbreviations are as above except that LLA means L-lactate and ETOH means ethanol.
# [4] = system: Staphylococcus aureus HH127; assay: In vitro MIC, standard microtiter assay; format: cell-based
# Description: as §1
# [5] = system: Salmonella gallinarum BC-595; assay: In vitro MIC, standard microtiter assay; format: cell-based; conditions: Table A
# Description: as §1
# Clostridium difficile = assay: In vitro MIC, standard microtiter assay; format: cell-based; conditions: Table A
# Description: as §1
# [6] = system: S. epidermidis 651 (methicillin resistant strain); assay: In vitro MIC, standard microtiter assay; format: cell-based; conditions: methicillin resistant strain
# Description: as §1
# S. epidermidis 2265 = assay: In vitro MIC, standard microtiter assay; format: cell-based; conditions: Table A
# Description: as §1
# S. epidermidis 2479 [7] = assay: In vitro MIC, standard microtiter assay; format: cell-based
# Description: as §1
# [8] = system: Streptococcus faecalis 657; assay: In vitro MIC, standard microtiter assay; format: cell-based; conditions: Table A
# Description: as §1
# Escherichia coli 12140 = assay: In vitro MIC, standard microtiter assay; format: cell-based; conditions: Table A
# Description: as §1
# S. epidermidis 2683 = assay: In vitro MIC, standard microtiter assay; format: cell-based; conditions: Table A
# Description: as §1
# S. aureus 674 = assay: In vitro MIC, standard microtiter assay; format: cell-based, Staphylococcus aureus; conditions: Table A
# Description: as §1
# [9] = system: S. aureus 910 (methicillin resistant strain); assay: In vitro MIC, standard microtiter assay; format: cell-based, Staphylococcus aureus; conditions: Table A, methicillin resistant strain
# Description: as §1
# S. aureus 675 = assay: In vitro MIC, standard microtiter assay; format: cell-based, Staphylococcus aureus; conditions: Table A
# Description: as §1
# S. aureus 209P = assay: In vitro MIC, standard microtiter assay; format: cell-based, Staphylococcus aureus; conditions: Table A
# Description: as §1
# [10] = system: rumen fermentation (strained rumen fluid); assay: Rumen in vitro model; design: species or system steer; conditions: for AAN (alpha amino nitrogen) / AMO (ammonia nitrogen) / LYS (lysine): 6 h; for % PR (percent propionate) / ACE (acetate) / BUT (butyrate) / ETOH (ethanol) / IBU (isobutyrate) / IVA (isovalerate) / PRO (propionate) / TOTAL (total volatile fatty acids) / VAL: 24 h
# Protocol: The AAD-609 antibiotics were characterized in a rumen in vitro model to assess their potential as feed additives for ruminants. […] Specifically, strained rumen fluid (10 ml) obtained from a fistulated steer receiving a roughage ration, was mixed with 10 ml of nutrient broth (20 mg casein hydrolysate, 100 mg maltose, 15 mg urea, 400 mg solka floc (cellulose), 100 mg cellobiose and 100 mg starch) and with a selected growth promotant and incubated at 39° C., with oscillation, for 24 hours. […] Measurement of AMO, LYS and AAN was done with a sample taken from the incubation flask after 6 hours.
# S. faecalis 34358 [11] = assay: In vitro MIC, standard microtiter assay; format: cell-based, Streptococcus faecalis
# Description: as §1
# [12] = system: S. epidermidis 651 (methicillin resistant strain); assay: Mouse protection test; format: in vivo; conditions: mice dosed 1 and 5 h post infection s.c.; methicillin resistant strain
# Description: (§2) in mouse protection tests^1
# (§3) ^1 Mice dosed 1 and 5 H post infection s.c.; ED50, mg/kg.
# [13] = system: S. aureus 2620 (methicillin resistant strain); assay: Mouse protection test; format: in vivo; conditions: mice dosed 1 and 5 h post infection s.c.; methicillin resistant strain
# Description: as §2, §3
# S. epidermidis 2479 [14] = assay: Mouse protection test; format: in vivo; conditions: mice dosed 1 and 5 h post infection s.c.
# Description: as §2, §3
# S. aureus HH127 = assay: Mouse protection test; format: in vivo; conditions: mice dosed 1 and 5 h post infection s.c.
# Description: as §2, §3
# S. faecalis 34358 [15] = assay: Mouse protection test; format: in vivo; conditions: mice dosed 1 and 5 h post infection s.c.
# Description: as §2, §3
# [16] = Staphylococcus aureus, read-out: MIC
# [17] = AAD-216A averaged previous results
# [18] = first phenolic OH, AAD-216A averaged previous results
# [19] = second phenolic OH, AAD-216A averaged previous results
# [20] = third phenolic OH, AAD-216A averaged previous results
smiles,measurement,setting,value
CCCCCCCCCC(=O)NC1C(Oc2c3cc4cc2Oc2c(Cl)cc(cc2Cl)C(O)C2NC(=O)C(NC(=O)C4NC(=O)C4NC(=O)C(NC(=O)C(NC)c5ccc(O)c(c5)Oc5cc(O)c(Cl)c4c5)C(O)c4ccc(c(Cl)c4)O3)c3ccc(O)c(c3)-c3c(OC4OC(CO)C(O)C(O)C4O)cc(O)cc3C(C(=O)O)NC2=O)OC(C(=O)O)C(O)C1O (centres unmarked) [AAD-216 A],MIC,[1]; [16],4 µg/mL
same,Elimination half-life,Pharmacokinetics in mice,3.77 h
same,Maximum serum concentration,Pharmacokinetics in mice,121 µg/mL
same,pKa (A) carboxyl on aglycone,[2]; [17],3.0
same,pKa (B) carboxyl on side chain,[2]; [17],4.9
same,pKa (C) amino group on aglycone,[2]; [17],7.4
same,pKa (D) phenolic OH,[2]; [18],8.4
same,pKa (D) phenolic OH,[2]; [19],10.0
same,pKa (D) phenolic OH,[2]; [20],10.3
same,% PR (percent propionate),[3],117 % of control
same,ACE (acetate),[3],200 % of control
same,BUT (butyrate),[3],147 % of control
same,ETOH (ethanol),[3],167 % of control
same,GLU (glucose),[3],180 % of control
same,IBU (isobutyrate),[3],0 % of control
same,IVA (isovalerate),[3],0 % of control
same,LLA (L-lactate),[3],2 % of control
same,LYS (lysine),[3],35 % of control
same,PRO (propionate),[3],276 % of control
same,TOTAL (total volatile fatty acids),[3],236 % of control
same,VAL,[3],0 % of control
same,MIC,"[4]; Staphylococcus aureus, HH127, Table A, read-out: MIC",3.1 µg/mL
same,MIC,[4]; Table B,3.1 µg/mL
same,MIC,"[5]; Salmonella enterica, GALLINARUM, read-out: MIC",> 100 µg/mL
same,MIC,"Clostridium difficile; Clostridioides difficile, read-out: MIC",0.25 µg/mL
same,MIC,"[6]; Staphylococcus epidermidis, Table A, read-out: MIC",100 µg/mL
same,MIC,[6]; Table B,100 µg/mL
same,MIC,"S. epidermidis 2265; Staphylococcus epidermidis, 2265, read-out: MIC",50 µg/mL
same,MIC,"S. epidermidis 2479 [7]; Staphylococcus epidermidis, 2479, Table A, read-out: MIC",25 µg/mL
same,MIC,S. epidermidis 2479 [7]; Table B,25 µg/mL
same,MIC,"[8]; Enterococcus faecalis, 657, read-out: MIC",0.8 µg/mL
same,MIC,"Escherichia coli 12140; Escherichia coli, 12140, read-out: MIC",> 100 µg/mL
same,MIC,"S. epidermidis 2683; Staphylococcus epidermidis, 2683, read-out: MIC",50 µg/mL
same,MIC,"S. aureus 674; Staphylococcus aureus, 674, read-out: MIC",3.1 µg/mL
same,MIC,[9]; [16],3.1 µg/mL
same,MIC,"S. aureus 675; Staphylococcus aureus, 675, read-out: MIC",12.5 µg/mL
same,MIC,"S. aureus 209P; Staphylococcus aureus, 209P, read-out: MIC",0.8 µg/mL
same,AAN (alpha amino nitrogen),[10]; 0.50 ppm,76 % of control
same,AMO (ammonia nitrogen),[10]; 0.50 ppm,102 % of control
same,LYS (lysine),[10]; 0.50 ppm,108 % of control
same,% PR (percent propionate),[10]; 0.50 ppm,106 % of control
same,ACE (acetate),[10]; 0.50 ppm,96 % of control
same,BUT (butyrate),[10]; 0.50 ppm,100 % of control
same,ETOH (ethanol),[10]; 0.50 ppm,0 % of control
same,IBU (isobutyrate),[10]; 0.50 ppm,125 % of control
same,IVA (isovalerate),[10]; 0.50 ppm,124 % of control
same,PRO (propionate),[10]; 0.50 ppm,107 % of control
same,TOTAL (total volatile fatty acids),[10]; 0.50 ppm,101 % of control
same,AAN (alpha amino nitrogen),[10]; 5.00 ppm,153 % of control
same,AMO (ammonia nitrogen),[10]; 5.00 ppm,101 % of control
same,LYS (lysine),[10]; 5.00 ppm,144 % of control
same,% PR (percent propionate),[10]; 5.00 ppm,148 % of control
same,ACE (acetate),[10]; 5.00 ppm,105 % of control
same,BUT (butyrate),[10]; 5.00 ppm,81 % of control
same,ETOH (ethanol),[10]; 5.00 ppm,0 % of control
same,IBU (isobutyrate),[10]; 5.00 ppm,75 % of control
same,IVA (isovalerate),[10]; 5.00 ppm,48 % of control
same,PRO (propionate),[10]; 5.00 ppm,153 % of control
same,TOTAL (total volatile fatty acids),[10]; 5.00 ppm,103 % of control
same,VAL,[10]; 5.00 ppm,56 % of control
same,AAN (alpha amino nitrogen),[10]; 50.00 ppm,195 % of control
same,AMO (ammonia nitrogen),[10]; 50.00 ppm,109 % of control
same,LYS (lysine),[10]; 50.00 ppm,168 % of control
same,% PR (percent propionate),[10]; 50.00 ppm,140 % of control
same,ACE (acetate),[10]; 50.00 ppm,93 % of control
same,BUT (butyrate),[10]; 50.00 ppm,87 % of control
same,ETOH (ethanol),[10]; 50.00 ppm,0 % of control
same,IBU (isobutyrate),[10]; 50.00 ppm,112 % of control
same,IVA (isovalerate),[10]; 50.00 ppm,98 % of control
same,PRO (propionate),[10]; 50.00 ppm,138 % of control
same,TOTAL (total volatile fatty acids),[10]; 50.00 ppm,98 % of control
same,VAL,[10]; 50.00 ppm,26 % of control
same,MIC,"S. faecalis 34358 [11]; Enterococcus faecalis, 34358, Table A, read-out: MIC",0.4 µg/mL
same,MIC,S. faecalis 34358 [11]; Table B,0.4 µg/mL
CNC1C(=O)NC2C(=O)NC(C(=O)NC3C(=O)NC4C(=O)NC(C(=O)NC(C(=O)O)c5cc(O)cc(OC6OC(CO)C(O)C(O)C6O)c5-c5cc4ccc5O)C(O)c4cc(Cl)c(c(Cl)c4)Oc4cc3cc(c4OC3OC(CO)C(O)C(O)C3NC(=O)CCCCCCCCC(C)C)Oc3ccc(cc3Cl)C2O)c2cc(cc(O)c2Cl)Oc2cc1ccc2O (centres unmarked) [AAD-609 C],MIC,[1],4 µg/mL
same,pKa (A) carboxyl on aglycone,[2]; [17],3.6
same,pKa (C) amino group on aglycone,[2]; [17],7.2
same,pKa (D) phenolic OH,[2]; [18],8.4
same,pKa (D) phenolic OH,[2]; fourth phenolic OH,11.6
same,pKa (D) phenolic OH,[2]; [19],9.9
same,pKa (D) phenolic OH,[2]; [20],10.6
same,MIC,[4]; Table A,1.6 µg/mL
same,MIC,[4]; Table B,1.6 µg/mL
same,MIC,[5],> 100 µg/mL
same,MIC,Clostridium difficile,1 µg/mL
same,MIC,[6]; Table A,25 µg/mL
same,MIC,[6]; Table B,25 µg/mL
same,MIC,S. epidermidis 2265,25 µg/mL
same,MIC,S. epidermidis 2479 [7]; Table A,12.5 µg/mL
same,MIC,S. epidermidis 2479 [7]; Table B,12.5 µg/mL
same,MIC,[8],0.2 µg/mL
same,MIC,Escherichia coli 12140,> 100 µg/mL
same,MIC,S. epidermidis 2683,25 µg/mL
same,MIC,S. aureus 674,1.6 µg/mL
same,MIC,[9],1.6 µg/mL
same,MIC,S. aureus 675,6.3 µg/mL
same,MIC,S. aureus 209P,0.8 µg/mL
same,MIC,S. faecalis 34358 [11]; Table A,0.2 µg/mL
same,MIC,S. faecalis 34358 [11]; Table B,0.2 µg/mL
same,ED50,[12],50 mg/kg
same,ED50,[13],8.4 mg/kg
same,ED50,S. epidermidis 2479 [14],22 mg/kg
same,ED50,S. aureus HH127,8.5 mg/kg
same,ED50,S. faecalis 34358 [15],50 mg/kg
